Test results published in US20030008903A1, “R-lansoprazole compositions and methods” (Sepracor Inc., priority 1998, published 2003).

How the values were obtained:
[1] = test system: hepatic drug metabolizing enzyme systems; conditions: compared with omeprazole; cited from earlier work
[2] = humans; cited from earlier work
gastric acid secretion = conditions: humans; cited from earlier work
serum gastrin = conditions: humans, on administration of racemic lansoprazole; cited from earlier work
canine parietal cells = conditions: isolated canine parietal cells; (+) versus (−) enantiomer; Nagaya et al.; cited from earlier work
[3] = human, in vivo
From the text: Utilizing the optically pure or substantially optically pure isomer of (+) lansoprazole results in enhanced efficacy, diminished adverse effects, and accordingly, an improved therapeutic index. […] It is therefore, more desirable to use the (+) isomer of lansoprazole than to administer the racemic mixture because predictability of an effective and safe dose for an individual patient is greater.

Cc1c(OCC(F)(F)F)ccnc1C[S+]([O-])c1nc2ccccc2[nH]1 (racemic) [racemic lansoprazole, 2-[3-methyl-4-(2,2,2-trifluoroethoxy)pyrid-2-yl]methylsulfinyl-benzimidazole]
effects on hepatic drug metabolizing enzyme systems [1]: comparable to omeprazole
serum half-life [2]: about 1.5 hours
duration of the acid inhibitory effect (gastric acid secretion): about 24 hours
fasting serum gastrin levels (serum gastrin): significantly elevated

Cc1c(OCC(F)(F)F)ccnc1C[S@@+]([O-])c1nc2ccccc2[nH]1 (single isomer, unassigned) [R(+) lansoprazole, (+) isomer of 2-[3-methyl-4-(2,2,2-trifluoroethoxy)pyrid-2-yl]methylsulfinyl-benzimidazole]
effects on acid formation stimulated by db-cAMP (canine parietal cells): almost identical
half-life [3]: longer half-life
variation in the patient population between good metabolizers and poor metabolizers [3]: less variation

Cc1c(OCC(F)(F)F)ccnc1C[S+]([O-])c1nc2ccccc2[nH]1 (stereo not drawn) [S(−) lansoprazole]
effects on acid formation stimulated by db-cAMP (canine parietal cells): almost identical
